Read-outs that look alike come from different tables or passages of the source.
Experiments:
[1] = molecular target: human phosphodiesterase 4; assay: Phosphodiesterase 4 functional assay; format: biochemical; conditions: read-out: IC50 phosphodiesterase 4 functional assay
[2] = test system: BVDV, polio, rhino, corona, coxsackie, influenza, and human immunodeficiency viruses (HIV); assay: organism not typed; format: cell-based; conditions: read-out: EC50 against panel of viruses
physchem = conditions: pKa values, zwitterionic form
in vitro [3] = assay: in vitro
CYP 3A4 = CYP 3A4 (Homo sapiens, UniProt P08684); assay: in vitro
CYP 3A4, sequence (P08684 whole entry): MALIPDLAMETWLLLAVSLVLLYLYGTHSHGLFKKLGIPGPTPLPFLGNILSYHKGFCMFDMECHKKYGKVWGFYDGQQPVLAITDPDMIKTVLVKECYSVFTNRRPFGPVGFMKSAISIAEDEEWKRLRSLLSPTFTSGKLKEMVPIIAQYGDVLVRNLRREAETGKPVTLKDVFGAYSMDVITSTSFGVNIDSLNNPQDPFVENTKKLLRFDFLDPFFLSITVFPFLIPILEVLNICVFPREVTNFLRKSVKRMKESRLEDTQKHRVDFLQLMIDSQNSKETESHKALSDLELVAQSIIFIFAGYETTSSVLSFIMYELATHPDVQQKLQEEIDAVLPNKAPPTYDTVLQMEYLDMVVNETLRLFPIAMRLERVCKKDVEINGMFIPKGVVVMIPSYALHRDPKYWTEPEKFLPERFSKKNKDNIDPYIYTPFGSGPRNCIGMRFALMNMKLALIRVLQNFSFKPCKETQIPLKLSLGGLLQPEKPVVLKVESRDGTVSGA

[4] = test system: chronic HCV genotype 1 infection; conditions: patients, cited from earlier work
in vitro [5] = format: in vitro ADME; conditions: human, microsomes
[6] = molecular target: human pregnane X receptor (hPXR) (Homo sapiens, UniProt O75469); conditions: at 5.56 μM
human pregnane X receptor (hPXR), sequence (O75469 whole entry): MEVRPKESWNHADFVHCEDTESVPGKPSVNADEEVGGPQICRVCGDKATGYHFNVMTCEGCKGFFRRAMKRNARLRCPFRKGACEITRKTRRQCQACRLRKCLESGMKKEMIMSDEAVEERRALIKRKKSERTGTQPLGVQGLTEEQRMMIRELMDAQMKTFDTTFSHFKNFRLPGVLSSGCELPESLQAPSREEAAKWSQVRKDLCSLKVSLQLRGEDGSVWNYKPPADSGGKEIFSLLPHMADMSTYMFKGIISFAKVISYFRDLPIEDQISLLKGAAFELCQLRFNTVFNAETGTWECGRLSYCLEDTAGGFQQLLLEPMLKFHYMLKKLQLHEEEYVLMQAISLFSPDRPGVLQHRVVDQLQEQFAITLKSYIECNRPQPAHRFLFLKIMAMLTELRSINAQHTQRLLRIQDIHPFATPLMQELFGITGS

NS5B P495L = NS5B P495L (Hepatitis C virus genotype 1b, UniProt Q9WMX2, P2914L); assay: biochemical
[7] = test system: HCV genotype 1b (Con1) replicon in Huh-7; assay: microbe, parasite or virus in culture; format: cell-based; conditions: Hepatitis C virus, GETYPE1B, Huh-7, read-out: potency in the replicon assays
[8] = molecular target: recombinant wild-type NS5B (genotype 1b, Con1) (Hepatitis C virus genotype 1b, UniProt Q9WMX2); assay: biochemical
[9] = rat; for liver levels: satellite study
in vitro [10] = conditions: monkey, microsomes
in vivo = conditions: rat

Compound: COc1ccc2c(c1)[C@@H]1C[C@]1(C(=O)N1[C@@H]3CC[C@H]1CN(C)C3)Cn1c-2c(C2CCCCC2)c2ccc(C(=O)NS(=O)(=O)N(C)C)cc21 [Compound 66, beclabuvir]
- IC50 [1]: > 10 µM
- EC50 [2]: > 14 µM
- bound to human serum: 98%
- pKa (physchem): 4.6
- CC50 (in vitro [3]): 14 to 48 µM
- IC50 (CYP 3A4): > 40 µM
- decline in viral load ([4]; 300 mg single dose, 24 h post-dosing): approximately 2.5 log10 IU/mL
- tolerability ([4]; single doses 100-900 mg): well tolerated
- half-life (in vitro [5]): 53 min
- hPXR transactivation Y max [6]: 8.1 ± 1.9
- IC50 (NS5B P495L): 0.19 µM
- EC50 [7]: < 0.01 µM
- IC50 [8]: 0.02 µM
- liver levels ([9]; 4 h following oral dosing): 24,400 nM
- liver levels ([9]; 24 h following oral dosing): 1,700 nM
- Cl ([9]; in vivo, iv, 5 mg/kg): 3.5 (±0.8) mL/min/kg
- half-life (in vitro [10]): 23 min
- AUC(0-inf) (in vivo; iv, 5 mg/kg): 30 µM·h
- Cmax (in vivo; iv, 5 mg/kg): 12.1 µM
- half-life (in vivo; iv, 5 mg/kg): 672 min
- AUC(0-inf) (in vivo; po, 10 mg/kg): 39.3 µM·h
- Cmax (in vivo; po, 10 mg/kg): 3.26 µM
